This is an account of results in patent publication US20260078135A1, “POLYCYCLIC QUINAZOLINES FOR INHIBITION OF ERBB2” (Enliven Inc., priority 2022, published 2026).

One test has as its target Ba/F3 ERBB2 YVMA (Homo sapiens, UniProt P04626, DUP772-775, cells depend on it). In words: Cell viability assay (CellTiter Glo), Ba/F3 cells engineered to express ERBB2 YVMA. The following applies: Ba/F3 cells expressing human ERBB2 YVMA mutant, 72 hours, read-out: Ba/F3 ERBB2 YVMA, IC50. In kind it is cell-based, mouse. As for the experimental part:
Cells were treated with compounds, and cell viability was measured as a metric of kinase inhibition.
BT-474, A431, MDA-MB-175VII, NCI-H1781, MCF7, and Ba/F3 cell lines were tested. The Ba/F3 cell line is IL-3-dependent mouse cell line derived from the C3H mouse strain. Ba/F3 cell lines were engineered to express human ERBB2 or EGFR kinases, rendering the cells IL-3 independent. The lines were generated via retroviral transduction utilizing a Moloney murine leukemia virus (MMLV) promoter, and constructs are stably integrated into the cell genome. The sequences of the ERBB2 and EGFR genes used were NCBI Reference Sequences NM_004448.3 and NM_005228.3, respectively.
BT-474, A431, MDA-MB-175VII, NCI-H1781 and MCF7 cells were grown in the appropriate growth medium as described in Table B2 below, and harvested at 50-80% confluence. BT-474, A431, MDA-MB-175VII, NCI-H1781 and MCF7 cells were counted and seeded at 2,000 or 1,500 cells per well in 384-well tissue culture plates (see Table B2). Similarly, Ba/F3 cell lines engineered to express EGFR, ERBB2, or ERBB2 mutants were grown, harvested, counted and seeded at 3000 cells per well in 96-well plates. A subset of wells contained media only (low control, “LC”).
Table B1 provides the growth media and number of cells seeded per well for the each cell line.
Compounds were dissolved in DMSO and serially diluted. Serially-diluted compound or a DMSO only control (high control, “HC”) was added to the plated cells in each well. Compounds were tested at concentrations of about 10 μM to 0.51 nM, using three-fold dilutions. The final proportion of DMSO never exceeded 0.1%.
Plates were placed in a 37° C., 5% CO2 incubator for 72 hours. Plates were then removed from the incubator and equilibrated for 15 minutes at room temperature. 40 μl of CellTiter Glo reagent (Promega) was added to measure the relative level of metabolically active cells by quantifying intracellular ATP concentrations. Plates were incubated for 30 minutes at room temperature, and luminescence was measured. Percent viability was normalized to a vehicle control only using the following formula: % viability=100×(Lumsample−LumLC)/(LumHC−LumLC). Graphical curves were fitted using a nonlinear regression model with a sigmoidal dose response.
On the technique in general: Cellular ATP, detected with luciferase, serves as a proxy for viable cell number.

Test [1] deals with T1, phosphorylated EGFR (pEGFR) (Homo sapiens, UniProt P00533).
T1 construct: performed to measure phosphorylated EGFR levels using A431 cells (10% FBS); endogenous in cells; host or cells: A431
In words: Detection of phosphorylated EGFR (pEGFR) by AlphaLISA in EGF-stimulated A431 cells. The following applies: A431 cells (10% FBS), 4 hours incubation, EGF 30 ng/mL for 10 minutes. In kind it is cell-based. In outline: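 A431 cells in 10% FBS were preincubated with compound for 4 h at 37 °C, then stimulated with 30 ng/mL EGF for 10 min and lysed. pEGFR read by AlphaLISA. % inhibition normalised to DMSO and staurosporine controls; IC50 from four-parameter curve fit.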
(Alpha assays give light when donor and acceptor beads are brought close together.)

Test [2] has as its target T2, phosphorylated ERBB2 (pERBB2) (Homo sapiens, UniProt P04626).
T2 construct: endogenous in cells; host or cells: BT-474
In words: Detection of phosphorylated ERBB2 (pERBB2) by ELISA in BT-474 cells. In kind it is cell-based. Conditions: four hour incubation. The gist of the method:
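BT-474 cells were treated with compounds (fourfold dilutions, 10 μM to 0.01 nM final) for 4 h at 37 °C, then lysed. pERBB2 in lysates was quantified by ELISA with an HRP anti-phosphotyrosine detection antibody and TMB read at 450 nm; % relative activity was normalized to no-cell and 0.1% DMSO controls.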
On the technique in general: ELISA stands for enzyme-linked immunosorbent assay.

Ba/F3 ERBB2 YVMA, sequence (P04626 with tags, fused parts or gaps DUP772-775): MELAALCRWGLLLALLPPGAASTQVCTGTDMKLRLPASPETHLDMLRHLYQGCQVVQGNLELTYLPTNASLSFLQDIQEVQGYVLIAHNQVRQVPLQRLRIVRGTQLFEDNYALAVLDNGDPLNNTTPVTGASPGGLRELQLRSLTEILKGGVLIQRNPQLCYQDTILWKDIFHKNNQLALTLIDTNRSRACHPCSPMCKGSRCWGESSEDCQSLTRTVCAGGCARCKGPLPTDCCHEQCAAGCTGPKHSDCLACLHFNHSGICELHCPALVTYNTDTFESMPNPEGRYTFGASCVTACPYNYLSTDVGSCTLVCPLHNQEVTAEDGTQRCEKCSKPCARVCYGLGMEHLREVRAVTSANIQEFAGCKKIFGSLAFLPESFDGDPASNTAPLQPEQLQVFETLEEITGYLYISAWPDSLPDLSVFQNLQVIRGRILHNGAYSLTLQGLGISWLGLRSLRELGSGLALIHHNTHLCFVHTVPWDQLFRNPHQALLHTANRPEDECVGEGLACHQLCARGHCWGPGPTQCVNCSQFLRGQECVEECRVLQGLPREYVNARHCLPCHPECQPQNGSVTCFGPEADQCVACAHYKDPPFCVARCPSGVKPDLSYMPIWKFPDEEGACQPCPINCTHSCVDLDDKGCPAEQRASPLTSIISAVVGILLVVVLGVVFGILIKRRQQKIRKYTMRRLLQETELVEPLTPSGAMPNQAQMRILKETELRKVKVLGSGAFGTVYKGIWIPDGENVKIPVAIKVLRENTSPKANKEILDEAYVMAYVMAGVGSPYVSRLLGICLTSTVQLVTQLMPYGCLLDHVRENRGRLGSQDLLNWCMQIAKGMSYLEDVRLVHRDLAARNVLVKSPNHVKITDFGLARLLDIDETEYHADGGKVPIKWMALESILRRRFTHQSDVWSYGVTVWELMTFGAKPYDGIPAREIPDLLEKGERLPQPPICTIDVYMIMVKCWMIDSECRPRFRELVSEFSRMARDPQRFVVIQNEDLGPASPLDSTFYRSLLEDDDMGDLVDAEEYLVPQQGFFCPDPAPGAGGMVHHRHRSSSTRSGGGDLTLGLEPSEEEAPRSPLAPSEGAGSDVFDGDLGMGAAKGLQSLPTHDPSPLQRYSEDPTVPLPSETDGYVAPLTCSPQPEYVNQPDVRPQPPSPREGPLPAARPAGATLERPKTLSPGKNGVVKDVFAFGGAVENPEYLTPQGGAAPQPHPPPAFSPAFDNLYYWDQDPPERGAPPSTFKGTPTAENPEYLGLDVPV
T2 sequence (P04626 23-1255): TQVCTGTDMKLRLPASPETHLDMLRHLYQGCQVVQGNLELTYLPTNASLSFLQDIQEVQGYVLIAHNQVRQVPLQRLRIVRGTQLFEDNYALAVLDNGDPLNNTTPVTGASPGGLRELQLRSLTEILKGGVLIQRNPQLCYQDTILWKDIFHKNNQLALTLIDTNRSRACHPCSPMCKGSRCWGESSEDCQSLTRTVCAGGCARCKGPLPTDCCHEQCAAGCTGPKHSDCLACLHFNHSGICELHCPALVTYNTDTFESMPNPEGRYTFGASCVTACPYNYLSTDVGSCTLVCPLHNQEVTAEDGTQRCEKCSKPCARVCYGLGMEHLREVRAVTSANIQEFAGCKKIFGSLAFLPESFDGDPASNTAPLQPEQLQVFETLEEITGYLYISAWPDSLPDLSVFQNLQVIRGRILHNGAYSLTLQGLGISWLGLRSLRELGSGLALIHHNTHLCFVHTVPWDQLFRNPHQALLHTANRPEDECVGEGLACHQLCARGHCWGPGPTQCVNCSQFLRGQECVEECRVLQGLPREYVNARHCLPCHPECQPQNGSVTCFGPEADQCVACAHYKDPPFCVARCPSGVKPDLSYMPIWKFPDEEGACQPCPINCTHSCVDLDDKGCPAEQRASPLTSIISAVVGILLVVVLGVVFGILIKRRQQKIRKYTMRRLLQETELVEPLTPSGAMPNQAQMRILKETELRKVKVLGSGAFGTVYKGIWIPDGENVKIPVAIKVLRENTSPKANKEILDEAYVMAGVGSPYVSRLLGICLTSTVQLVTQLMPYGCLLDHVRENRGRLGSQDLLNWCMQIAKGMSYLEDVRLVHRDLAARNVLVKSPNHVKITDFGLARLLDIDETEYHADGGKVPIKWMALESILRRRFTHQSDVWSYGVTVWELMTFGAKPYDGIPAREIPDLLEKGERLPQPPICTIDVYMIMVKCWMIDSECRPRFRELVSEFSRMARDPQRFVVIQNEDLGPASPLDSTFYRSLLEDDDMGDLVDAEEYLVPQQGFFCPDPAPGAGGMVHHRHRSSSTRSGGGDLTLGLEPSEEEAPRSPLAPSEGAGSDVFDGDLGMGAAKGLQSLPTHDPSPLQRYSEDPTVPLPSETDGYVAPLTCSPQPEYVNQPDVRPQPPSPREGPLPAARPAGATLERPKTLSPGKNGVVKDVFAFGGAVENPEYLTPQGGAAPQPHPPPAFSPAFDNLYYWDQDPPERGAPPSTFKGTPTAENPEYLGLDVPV
T1 sequence (P00533 25-1210): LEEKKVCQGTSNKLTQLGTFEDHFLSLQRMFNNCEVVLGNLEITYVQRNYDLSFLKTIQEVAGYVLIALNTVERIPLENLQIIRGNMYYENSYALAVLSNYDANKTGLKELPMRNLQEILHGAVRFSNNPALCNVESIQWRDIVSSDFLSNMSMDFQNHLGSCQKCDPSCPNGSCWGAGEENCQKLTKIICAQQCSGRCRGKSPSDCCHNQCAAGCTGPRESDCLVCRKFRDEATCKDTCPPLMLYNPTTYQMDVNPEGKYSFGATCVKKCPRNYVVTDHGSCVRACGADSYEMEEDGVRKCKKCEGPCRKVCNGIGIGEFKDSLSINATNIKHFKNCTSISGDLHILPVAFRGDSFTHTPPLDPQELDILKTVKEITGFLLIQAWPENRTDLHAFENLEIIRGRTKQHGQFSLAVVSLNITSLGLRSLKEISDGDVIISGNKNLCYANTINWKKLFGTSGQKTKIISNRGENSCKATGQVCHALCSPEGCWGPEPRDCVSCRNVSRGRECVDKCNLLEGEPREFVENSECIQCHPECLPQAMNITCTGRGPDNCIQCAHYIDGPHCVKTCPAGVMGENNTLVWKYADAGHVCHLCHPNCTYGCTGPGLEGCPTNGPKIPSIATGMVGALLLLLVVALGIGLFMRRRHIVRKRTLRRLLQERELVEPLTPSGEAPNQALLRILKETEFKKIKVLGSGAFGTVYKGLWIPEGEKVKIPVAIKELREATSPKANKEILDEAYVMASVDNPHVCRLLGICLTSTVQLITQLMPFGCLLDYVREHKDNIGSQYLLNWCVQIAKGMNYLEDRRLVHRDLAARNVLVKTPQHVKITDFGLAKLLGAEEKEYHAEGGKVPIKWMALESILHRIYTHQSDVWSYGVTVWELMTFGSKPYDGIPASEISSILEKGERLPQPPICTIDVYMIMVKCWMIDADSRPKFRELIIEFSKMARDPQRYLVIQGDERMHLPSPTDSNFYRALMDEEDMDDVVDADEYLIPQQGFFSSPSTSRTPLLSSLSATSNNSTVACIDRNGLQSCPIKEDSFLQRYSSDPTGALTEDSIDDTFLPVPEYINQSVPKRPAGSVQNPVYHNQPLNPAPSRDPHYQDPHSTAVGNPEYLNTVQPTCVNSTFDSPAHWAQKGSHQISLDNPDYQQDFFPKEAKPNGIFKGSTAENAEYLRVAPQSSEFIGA

Take `Cc1cc(Nc2ncnc3cnc4c(c23)OC[C@H]2CN4CCN2C(=O)/C=C/CN(C)C)c(F)cc1Oc1ccn2ncnc2c1` [Compound 83, (E)-1-((3R)-13-((4-([1,2,4]triazolo[1,5-a]pyridin-7-yloxy)-2-fluoro-5-methylphenyl)amino)-2,3,5,6-tetrahydro-4H-3,7-methanopyrimido[5′,4′:4,5]pyrido[3,2-b][1,4,7]oxadiazonin-4-yl)-4-(dimethylamino)but-2-en-1-one]: the GI50 on Ba/F3 ERBB2 YVMA stood at 14 nM. In addition, the IC50 in test [1] stood at 344 nM; in test [2], 17.3 nM.

Take `Cc1cc(Nc2ncnc3ccc4c(c23)OC[C@H]2CN4CCN2C(=O)/C=C/CN(C)C)ccc1Oc1ccc2c(c1)ncn2C` [Compound 31, (E)-4-(dimethylamino)-1-((3R)-13-((3-methyl-4-((1-methyl-1H-benzo[d]imidazol-5-yl)oxy)phenyl)amino)-2,3,5,6-tetrahydro-4H-3,7-methano[1,4,7]oxadiazonino[2,3-f]quinazolin-4-yl)but-2-en-1-one]: the GI50 on Ba/F3 ERBB2 YVMA is 12.6 nM. In addition, the IC50 in test [1] came to 246 nM; in test [2], 19.9 nM.

On to `Cc1c(Oc2ccn3ncnc3c2)ccc(Nc2ncnc3ccc4c(c23)OC[C@@H]2CN(C(=O)/C=C/CN(C)C)CCN42)c1F` [Compound 93, (S,E)-1-(4-((4-([1,2,4]triazolo[1,5-a]pyridin-7-yloxy)-2-fluoro-3-methylphenyl)amino)-6a,7,9,10-tetrahydropyrazino[1′,2′:4,5][1,4]oxazino[2,3-f]quinazolin-8(6H)-yl)-4-(dimethylamino)but-2-en-1-one], for which the GI50 at Ba/F3 ERBB2 YVMA amounted to 7.75 nM. Moreover, the IC50 amounted to 308 nM in test [1] and 18.1 nM in test [2].

As to `Cc1cc(Nc2ncnc3ccc4c(c23)OC[C@H]2CN(C(=O)/C=C/CN(C)C)CCN42)ccc1Oc1ccn2ncnc2c1` [Compound 18, (R,E)-1-(4-((4-([1,2,4]triazolo[1,5-a]pyridin-7-yloxy)-3-methylphenyl)amino)-6a,7,9,10-tetrahydropyrazino[1′,2′:4,5][1,4]oxazino[2,3-f]quinazolin-8(6H)-yl)-4-(dimethylamino)but-2-en-1-one], the GI50 at Ba/F3 ERBB2 YVMA was determined as 223 nM. Further, the IC50 in test [1] is greater than 10000 nM; in test [2], 240 nM.

Take `C=CC(=O)N1CCN2c3cc4c(Nc5ccc(Oc6ccn7ncnc7c6)c(C)c5)ncnc4cc3OC[C@H]2C1` [Compound 4, (R)-1-(11-((4-([1,2,4]triazolo[1,5-a]pyridin-7-yloxy)-3-methylphenyl)amino)-1,2,4a,5-tetrahydropyrazino[1′,2′:4,5][1,4]oxazino[3,2-g]quinazolin-3(4H)-yl)prop-2-en-1-one]: the GI50 on Ba/F3 ERBB2 YVMA turned out to be 62.4 nM. The IC50 came to 1330 nM in test [1] and 14.1 nM in test [2].

On to `Cc1cc(Nc2ncnc3ccc4c(c23)OC[C@@H]2CN4CCN2C)ccc1Oc1ccn2ncnc2c1` [Compound 50, (3S)—N-(4-([1,2,4]triazolo[1,5-a]pyridin-7-yloxy)-3-methylphenyl)-4-methyl-3,4,5,6-tetrahydro-2H-3,7-methano[1,4,7]oxadiazonino[2,3-f]quinazolin-13-amine], for which the GI50 on Ba/F3 ERBB2 YVMA is greater than 500 nM. The IC50 is greater than 10000 nM in test [1] and 195 nM in test [2].

As to `Cc1cc(Nc2ncnc3ccc4c(c23)OC[C@@H]2CN(C(=O)/C=C/CN(C)C)CCN42)c(F)cc1Oc1ccn2ncnc2c1` [Compound 92, (S,E)-1-(4-((4-([1,2,4]triazolo[1,5-a]pyridin-7-yloxy)-2-fluoro-5-methylphenyl)amino)-6a,7,9,10-tetrahydropyrazino[1′,2′:4,5][1,4]oxazino[2,3-f]quinazolin-8(6H)-yl)-4-(dimethylamino)but-2-en-1-one], the GI50 on Ba/F3 ERBB2 YVMA was 18 nM. Further, the IC50 was determined as 2160 nM in test [1] and 20.8 nM in test [2].

As to `C=CC(=O)N1CCN2C[C@@H]1COc1c2ccc2ncnc(Nc3ccc(Oc4ccc5c(c4)ncn5C)c(C)c3)c12` [Compound 29, 1-((3R)-13-((3-methyl-4-((1-methyl-1H-benzo[d]imidazol-5-yl)oxy)phenyl)amino)-2,3,5,6-tetrahydro-4H-3,7-methano[1,4,7]oxadiazonino[2,3-f]quinazolin-4-yl)prop-2-en-1-one], the GI50 on Ba/F3 ERBB2 YVMA was 23.9 nM. Moreover, the results for the IC50 in test [1] and in test [2] were 2930 nM and 30.7 nM, respectively.

As for `Cc1cc(Nc2ncnc3ccc4c(c23)OC[C@H]2COCCN42)ccc1Oc1ccn2ncnc2c1` [Compound 85, (R)—N-(4-([1,2,4]triazolo[1,5-a]pyridin-7-yloxy)-3-methylphenyl)-6a,7,9,10-tetrahydro-6H-[1,4]oxazino[4′,3′:4,5][1,4]oxazino[2,3-f]quinazolin-4-amine], at Ba/F3 ERBB2 YVMA, the GI50 is 181 nM. Besides, the values for the IC50 in test [1] and in test [2] were greater than 10000 nM and 17.2 nM, respectively.

In the case of `Cc1cc(Nc2ncnc3ccc4c(c23)OC[C@@H]2CN4CCN2C(=O)/C=C/CN(C)C)ccc1Oc1ccn2ncnc2c1` [Compound 26, (E)-1-((3S)-13-((4-([1,2,4]triazolo[1,5-a]pyridin-7-yloxy)-3-methylphenyl)amino)-2,3,5,6-tetrahydro-4H-3,7-methano[1,4,7]oxadiazonino[2,3-f]quinazolin-4-yl)-4-(dimethylamino)but-2-en-1-one], the GI50 on Ba/F3 ERBB2 YVMA was greater than 500 nM. Also, the IC50 was greater than 10000 nM in test [1] and 434 nM in test [2].

Consider `Cc1cc(Nc2ncnc3ccc4c(c23)OC[C@H]2CN4CCN2C(=O)/C=C/C2(F)CN(C)C2)ccc1Oc1ccn2ncnc2c1` [Compound 81, (E)-1-((3R)-13-((4-([1,2,4]triazolo[1,5-a]pyridin-7-yloxy)-3-methylphenyl)amino)-2,3,5,6-tetrahydro-4H-3,7-methano[1,4,7]oxadiazonino[2,3-f]quinazolin-4-yl)-3-(3-fluoro-1-methylazetidin-3-yl)prop-2-en-1-one], for which the GI50 on Ba/F3 ERBB2 YVMA was found to be 8.51 nM. Besides, the results for the IC50 in test [1] and in test [2] were 785 nM and 17.2 nM, respectively.

As to `Cc1cc(Nc2ncnc3ccc4c(c23)O[C@@H]2CCN(C)C[C@H]2N4C)ccc1Oc1ccc2c(c1)ncn2C` (relative stereo) [Compound 124, trans-7,9-dimethyl-N-(3-methyl-4-((1-methyl-1H-benzo[d]imidazol-5-yl)oxy)phenyl)-7a,8,9,10,11,11a-hexahydro-7H-pyrido[3′,4′:5,6][1,4]oxazino[2,3-f]quinazolin-1-amine], the GI50 at Ba/F3 ERBB2 YVMA came to 93.7 nM. Also, the IC50 was greater than 10000 nM in test [1] and 63 nM in test [2].

Take `Cc1cc(Nc2ncnc3cc4c(nc23)N2CCNC[C@@H]2CO4)ccc1Oc1ccn2ncnc2c1` [Compound 35, (R)—N-(4-([1,2,4]triazolo[1,5-a]pyridin-7-yloxy)-3-methylphenyl)-1,2,3,4,4a,5-hexahydropyrazino[1,2-d]pyrimido[4′,5′:5,6]pyrido[3,2-b][1,4]oxazin-11-amine]: the GI50 at Ba/F3 ERBB2 YVMA was greater than 500 nM. The IC50 in test [1] is greater than 10000 nM; in test [2], 127 nM.

For the molecule `Cc1cc(Nc2ncnc3ccc4c(c23)OC[C@H]2CN4CCN2C(=O)/C=C/[C@H](C)N(C)C)c(F)cc1Oc1ccn2ncnc2c1` [Compound 91, (4S,E)-1-((3R)-13-((4-([1,2,4]triazolo[1,5-a]pyridin-7-yloxy)-2-fluoro-5-methylphenyl)amino)-2,3,5,6-tetrahydro-4H-3,7-methano[1,4,7]oxadiazonino[2,3-f]quinazolin-4-yl)-4-(dimethylamino)pent-2-en-1-one triformate], the GI50 on Ba/F3 ERBB2 YVMA was 164 nM. Further, the IC50 in test [1] was greater than 10000 nM; in test [2], 147 nM.

As to `Cc1cc(Nc2ncnc3ccc4c(c23)O[C@H]2CCN(C)C[C@H]2N4)ccc1Oc1ccc2c(c1)ncn2C` [Compound 125, (7aR,11aS)-9-methyl-N-(3-methyl-4-((1-methyl-1H-benzo[d]imidazol-5-yl)oxy)phenyl)-7a,8,9,10,11,11a-hexahydro-7H-pyrido[3′,4′:5,6][1,4]oxazino[2,3-f]quinazolin-1-amine], the GI50 at Ba/F3 ERBB2 YVMA was 164 nM. Besides, the IC50 was greater than 10000 nM in test [1] and 58 nM in test [2].

Usually IC50 stands for the concentration needed to halve the response being measured. Low readings indicate inhibition by little substance, high ones a need for much substance.
